# Reference: PubChem BioAssay (NCI)
#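 Grown in 96-well plates, cells were treated for 48 hours with each compound at five concentrations. Insufficient inhibition: endpoint recorded as highest concentration tested. At the TGI there is no net growth.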
# Legend:
# Test in all cases: DTP human tumour cell line panel, 48 h
# 786-0 renal = tested on: 786-0 renal
# A549 NSCLC = tested on: A549 NSCLC
# ACHN renal = tested on: ACHN renal
# CAKI-1 renal = tested on: CAKI-1 renal
# CCRF-CEM leukemia = tested on: CCRF-CEM leukemia
# COLO 205 colon = tested on: COLO 205 colon
# DLD-1 colon = tested on: DLD-1 colon
# DMS 114 small cell lung = tested on: DMS 114 small cell lung
# DMS 273 small cell lung = tested on: DMS 273 small cell lung
# EKVX NSCLC = tested on: EKVX NSCLC
# HCC-2998 colon = tested on: HCC-2998 colon
# HCT-116 colon = tested on: HCT-116 colon
# HCT-15 colon = tested on: HCT-15 colon
# HL-60(TB) leukemia = tested on: HL-60(TB) leukemia
# HOP-62 NSCLC = tested on: HOP-62 NSCLC
# HOP-92 NSCLC = tested on: HOP-92 NSCLC
# HT29 colon = tested on: HT29 colon
# IGROV1 ovarian = tested on: IGROV1 ovarian
# K-562 leukemia = tested on: K-562 leukemia
# KM12 colon = tested on: KM12 colon
# KM20L2 colon = tested on: KM20L2 colon
# LOX IMVI melanoma = tested on: LOX IMVI melanoma
# LXFL 529 NSCLC = tested on: LXFL 529 NSCLC
# M14 melanoma = tested on: M14 melanoma
# M19-MEL melanoma = tested on: M19-MEL melanoma
# MALME-3M melanoma = tested on: MALME-3M melanoma
# MOLT-4 leukemia = tested on: MOLT-4 leukemia
# NCI-H226 lung = tested on: NCI-H226 lung
# NCI-H460 lung = tested on: NCI-H460 lung
# NCI-H522 lung = tested on: NCI-H522 lung
# OVCAR-3 ovarian = tested on: OVCAR-3 ovarian
# OVCAR-4 ovarian = tested on: OVCAR-4 ovarian
# OVCAR-5 ovarian = tested on: OVCAR-5 ovarian
# OVCAR-8 ovarian = tested on: OVCAR-8 ovarian
# RPMI-8226 leukemia = tested on: RPMI-8226 leukemia
# RXF 393 renal = tested on: RXF 393 renal
# RXF-631 renal = tested on: RXF-631 renal
# SF-268 CNS = tested on: SF-268 CNS
# SF-295 CNS = tested on: SF-295 CNS
# SF-539 CNS = tested on: SF-539 CNS
# SK-MEL-2 melanoma = tested on: SK-MEL-2 melanoma
# SK-MEL-28 melanoma = tested on: SK-MEL-28 melanoma
# SK-OV-3 ovarian = tested on: SK-OV-3 ovarian
# SN12C renal = tested on: SN12C renal
# SNB-19 CNS = tested on: SNB-19 CNS
# SNB-75 CNS = tested on: SNB-75 CNS
# SR leukemia = tested on: SR leukemia
# SW-620 colon = tested on: SW-620 colon
# TK-10 renal = tested on: TK-10 renal
# U251 CNS = tested on: U251 CNS
# UACC-257 melanoma = tested on: UACC-257 melanoma
# UO-31 renal = tested on: UO-31 renal
# A498 renal = tested on: A498 renal
# NCI-H23 lung = tested on: NCI-H23 lung
# SNB-78 CNS = tested on: SNB-78 CNS
# UACC-62 melanoma = tested on: UACC-62 melanoma
smiles,measurement,setting,value
NC(N)=NS(=O)(=O)c1ccc(NCCc2c3ccccc3nc3ccccc23)cc1,TGI,786-0 renal,> 100 µM
same,TGI,A549 NSCLC,> 100 µM
same,TGI,ACHN renal,> 100 µM
same,TGI,CAKI-1 renal,> 100 µM
same,TGI,CCRF-CEM leukemia,> 100 µM
same,TGI,COLO 205 colon,> 100 µM
same,TGI,DLD-1 colon,> 100 µM
same,TGI,DMS 114 small cell lung,> 100 µM
same,TGI,DMS 273 small cell lung,> 100 µM
same,TGI,EKVX NSCLC,> 100 µM
same,TGI,HCC-2998 colon,> 100 µM
same,TGI,HCT-116 colon,> 100 µM
same,TGI,HCT-15 colon,> 100 µM
same,TGI,HL-60(TB) leukemia,82.5 µM
same,TGI,HOP-62 NSCLC,> 100 µM
same,TGI,HOP-92 NSCLC,> 100 µM
same,TGI,HT29 colon,> 100 µM
same,TGI,IGROV1 ovarian,> 100 µM
same,TGI,K-562 leukemia,> 100 µM
same,TGI,KM12 colon,> 100 µM
same,TGI,KM20L2 colon,> 100 µM
same,TGI,LOX IMVI melanoma,> 100 µM
same,TGI,LXFL 529 NSCLC,> 100 µM
same,TGI,M14 melanoma,> 100 µM
same,TGI,M19-MEL melanoma,> 100 µM
same,TGI,MALME-3M melanoma,> 100 µM
same,TGI,MOLT-4 leukemia,> 100 µM
same,TGI,NCI-H226 lung,> 100 µM
same,TGI,NCI-H460 lung,> 100 µM
same,TGI,NCI-H522 lung,> 100 µM
same,TGI,OVCAR-3 ovarian,> 100 µM
same,TGI,OVCAR-4 ovarian,53.8 µM
same,TGI,OVCAR-5 ovarian,> 100 µM
same,TGI,OVCAR-8 ovarian,> 100 µM
same,TGI,RPMI-8226 leukemia,> 100 µM
same,TGI,RXF 393 renal,> 100 µM
same,TGI,RXF-631 renal,> 100 µM
same,TGI,SF-268 CNS,> 100 µM
same,TGI,SF-295 CNS,> 100 µM
same,TGI,SF-539 CNS,> 100 µM
same,TGI,SK-MEL-2 melanoma,> 100 µM
same,TGI,SK-MEL-28 melanoma,> 100 µM
same,TGI,SK-OV-3 ovarian,> 100 µM
same,TGI,SN12C renal,> 100 µM
same,TGI,SNB-19 CNS,> 100 µM
same,TGI,SNB-75 CNS,> 100 µM
same,TGI,SR leukemia,> 100 µM
same,TGI,SW-620 colon,> 100 µM
same,TGI,TK-10 renal,> 100 µM
same,TGI,U251 CNS,> 100 µM
same,TGI,UACC-257 melanoma,> 100 µM
same,TGI,UO-31 renal,> 100 µM
O=c1c2cc(Cl)ccc2sc2cccc(Cl)c12,TGI,786-0 renal,> 100 µM
same,TGI,A498 renal,> 100 µM
same,TGI,A549 NSCLC,> 100 µM
same,TGI,ACHN renal,> 100 µM
same,TGI,CAKI-1 renal,> 100 µM
same,TGI,CCRF-CEM leukemia,> 100 µM
same,TGI,COLO 205 colon,> 100 µM
same,TGI,DMS 273 small cell lung,> 100 µM
same,TGI,EKVX NSCLC,> 100 µM
same,TGI,HCT-116 colon,> 100 µM
same,TGI,HCT-15 colon,> 100 µM
same,TGI,HL-60(TB) leukemia,> 100 µM
same,TGI,HOP-62 NSCLC,> 100 µM
same,TGI,HOP-92 NSCLC,> 100 µM
same,TGI,HT29 colon,> 100 µM
same,TGI,IGROV1 ovarian,> 100 µM
same,TGI,K-562 leukemia,> 100 µM
same,TGI,KM12 colon,> 100 µM
same,TGI,KM20L2 colon,> 100 µM
same,TGI,LOX IMVI melanoma,> 100 µM
same,TGI,LXFL 529 NSCLC,> 100 µM
same,TGI,M14 melanoma,> 100 µM
same,TGI,M19-MEL melanoma,> 100 µM
same,TGI,MOLT-4 leukemia,> 100 µM
same,TGI,NCI-H226 lung,> 100 µM
same,TGI,NCI-H23 lung,> 100 µM
same,TGI,NCI-H460 lung,> 100 µM
same,TGI,NCI-H522 lung,> 100 µM
same,TGI,OVCAR-3 ovarian,> 100 µM
same,TGI,OVCAR-4 ovarian,> 100 µM
same,TGI,OVCAR-5 ovarian,> 100 µM
same,TGI,OVCAR-8 ovarian,> 100 µM
same,TGI,RPMI-8226 leukemia,> 100 µM
same,TGI,RXF 393 renal,> 100 µM
same,TGI,RXF-631 renal,> 100 µM
same,TGI,SF-268 CNS,> 100 µM
same,TGI,SF-295 CNS,> 100 µM
same,TGI,SF-539 CNS,> 100 µM
same,TGI,SK-MEL-2 melanoma,> 100 µM
same,TGI,SK-MEL-28 melanoma,> 100 µM
same,TGI,SN12C renal,> 100 µM
same,TGI,SNB-19 CNS,> 100 µM
same,TGI,SNB-78 CNS,> 100 µM
same,TGI,SR leukemia,> 100 µM
same,TGI,SW-620 colon,> 100 µM
same,TGI,TK-10 renal,> 100 µM
same,TGI,U251 CNS,> 100 µM
same,TGI,UACC-257 melanoma,> 100 µM
same,TGI,UACC-62 melanoma,> 100 µM
same,TGI,UO-31 renal,> 100 µM
